A short description of assay [1]: Inhibition of concanavalin A stimulated rat splenocyte proliferation.
A short description of assay [2]: Inhibition of concanavalin A stimulated T-cell proliferation in human PBMCs.

Where only a bound is given, the exact number is not on record here.

As usually defined, the EC50 is the concentration needed to bring the measured effect to its halfway point. Low values mean an effect from little substance, high ones a need for much substance. `C=CCC1Oc2cccc(C=C)c2-c2ccc3c(c21)C(C)=CC(C)(C)N3` (configuration not stated) [5-Allyl-2,2,4-trimethyl-10-vinyl-2,5-dihydro-1H-6-oxa-1-aza-chrysene]: the EC50 was 90 nM in assay [1] and above 1000 nM in assay [2].
Regarding `C=CCC1Oc2cccc(Cl)c2-c2ccc3c(c21)C(C)=CC(C)(C)N3` (configuration not stated) [5-Allyl-10-chloro-2,2,4-trimethyl-2,5-dihydro-1H-6-oxa-1-aza-chrysene], the results for the EC50 in assay [1] and in assay [2] were above 1000 nM and 440 nM, respectively.
The matching figures for `C=CCC1Oc2cccc(OC(F)F)c2-c2ccc3c(c21)C(C)=CC(C)(C)N3` (configuration not stated) [5-Allyl-10-difluoromethoxy-2,2,4-trimethyl-2,5-dihydro-1H-6-oxa-1-aza-chrysene]: 85 nM and 563 nM.
For the compound `C=CCC1Oc2ccc(O)c(OC)c2-c2ccc3c(c21)C(C)=CC(C)(C)N3` (configuration not stated) [5-Allyl-10-methoxy-2,2,4-trimethyl-2,5-dihydro-1H-6-oxa-1-aza-chrysen-9-ol], the EC50 in assay [1] turned out to be 78 nM; in assay [2], 145 nM.
For the compound `C=CCC1Oc2cccc(OC)c2-c2ccc3c(c21)C(C)=CC(C)(C)N3` (configuration not stated) [5-Allyl-10-methoxy-2,2,4-trimethyl-2,5-dihydro-1H-6-oxa-1-aza-chrysene], the EC50 came out at 48 nM in assay [1] and 780 nM in assay [2].
For `C=CCC1Oc2cccc(NC)c2-c2ccc3c(c21)C(C)=CC(C)(C)N3` (configuration not stated) [(5-Allyl-2,2,4-trimethyl-2,5-dihydro-1H-6-oxa-1-aza-chrysen-10-yl)-methyl-amine], in that order: 48 nM and 418 nM.
